Active and inactive are the calls of the source. The calls are words filed in the database; no cut-off is given here.
Key:
Adenosine receptor A1 = biological target: T1, Adenosine receptor A1 (Rattus norvegicus, UniProt P25099); assay: Displacement of [3H]DPCPX from rat brain adenosine A1 receptor
T1 sequence (P25099 whole entry): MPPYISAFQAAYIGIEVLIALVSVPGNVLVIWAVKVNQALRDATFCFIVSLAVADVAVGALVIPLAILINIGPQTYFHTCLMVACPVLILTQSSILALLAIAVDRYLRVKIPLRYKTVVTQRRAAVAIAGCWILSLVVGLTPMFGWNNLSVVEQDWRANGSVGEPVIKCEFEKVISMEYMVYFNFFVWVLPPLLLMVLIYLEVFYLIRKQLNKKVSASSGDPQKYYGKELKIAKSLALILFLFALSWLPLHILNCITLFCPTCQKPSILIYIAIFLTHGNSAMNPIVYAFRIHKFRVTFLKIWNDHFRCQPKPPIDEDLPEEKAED

[1] = biological target: T2, Adenosine receptor A1 (Rattus norvegicus) (UniProt P25099); assay: Displacement of [3H]DPCPX from rat brain adenosine A1 receptor up to […]
T2 sequence (whole entry): T1 sequence (P25099 whole entry)

IC50 (Adenosine receptor A1)	Activity [1]	Structure (SMILES)
300 µM	–	CC(C)[C@H]1/C=C/[C@](C)(O)C/C=C/[C@@](C)(O)CC[C@@H]2O[C@@]2(C)CC1
–	inactive	C=C1CC[C@@H]2O[C@@]2(C)CC[C@@H](C(C)C)/C=C/[C@](C)(O)CC[C@@H]1O
–	inactive	C=C1CC[C@@H]2O[C@@]2(C)CC[C@@H](C(C)C)/C=C/[C@](C)(O)CC[C@H]1O
300 µM	–	CC(C)[C@H]1/C=C/[C@](C)(O)C/C=C/[C@](C)(O)CC[C@@H]2O[C@@]2(C)CC1
